Test results from patent publication US6423689B1, “Peptidyl calcium channel blockers” (Warner-Lambert Company, priority 1997, dated 2002).

How the values were obtained:
[1] = test system: K+ channels in superior cervical ganglion (SCG) neurons; test: Whole-cell voltage clamp, K+ current in SCG neurons; assay type: cell-based, rat
Method in brief: (§1)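 Percent inhibition of control amplitude at steady-state block is the read-out: peak inward Na+ current at 0 mV, sustained K+ current at +50 mV, 35 msec steps every 10 sec from −65 to −55 mV. Recordings used whole-cell clamp of trypsin-dissociated SCG neurons, pH 7.4 external and pipette solutions, compounds applied by local perfusion.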

[2] = test system: Na+ channels in superior cervical ganglion (SCG) neurons; test: Whole-cell voltage clamp, Na+ current in SCG neurons; assay type: cell-based, rat
Method in brief: as §1

[3] = molecular target: T1, L-type Ca2+ channels in A10 cells (Rattus norvegicus, UniProt P22002); test: Inhibition of L-type calcium flux in A10 cells (FLIPR); assay type: cell-based
T1 construct: which endogenously expresses L-type calcium channels; host or cells: A10 rat aortic smooth muscle cells
Procedure: Measurement of L-type Ca^2+ Channel Blocking Potencies of Compounds in A10 cells
Calcium flux through voltage-sensitive calcium channels was assessed by time-resolved monitoring of the fluorescence of pre-loaded calcium-sensitive dyes using FLIPR, a fluorescent image plate reader (Molecular Devices Co.). The A10 smooth muscle cell line derived from embryonic thoracic aorta of the DBIX rat (ATCC, CRL-1476) which endogenously expresses L-type calcium channels. The growth media for A10 cells was Ham's F12/DME high glucose (Irvine Scientific, 9052), supplemented with 20% fetal bovine serum (HyClone Labs, A-1115-L), and 1% each of L-glutamine and antibiotic-antimycotic (same source as above).
Cells were grown to confluency and replated on black-sided 96-well plates (Costar, 3603) for use in FLIPR. Two days after replating, growth media was removed and cells were loaded at 37° C. with 100 μL media containing 1 μM Oregon Green 488 Bapta-1 dye (Molecular Probes, O-6807) for 1 to 3 hours. The dye-containing media was then washed away with buffer (composition in mM: 1.25 CaCl2, 1.2 MgSO4, 11 glucose, 10 HEPES, 3.0 KCl, 137.0 NaCl, pH 7.4 with Tris base) in a Denley Cellwash (Labsystems, CW018B). The residual buffer volume was adjusted to 50 μL. A 5 minute drug-pre-incubation period at 35° C. was initiated when 50 μL of drug-containing buffer was pipetted into the cell plate with the 96-well pipettor integrated in the FLIPR apparatus. Fluorescent counts were monitored at 20 second intervals for 360 seconds, beginning 60 seconds prior to the delivery of drug-containing buffer. Following drug addition, 100 μL aliquots of a high K^+, depolarizing stimulus (composition in mM: 1.25 CaCl2, 1.2 MgSO4, 11 glucose, 10 HEPES, 140.0 KCl, pH 7.4 with Tris base) were added to each well and fluorescence was monitored at 1 second intervals for 120 seconds, beginning 10 seconds prior to the stimulus addition. CCD camera exposure time was 0.4 seconds, laser excitation was at 488 nm with a power of 0.2-0.5W, and a 510 to 560 nm bandpass interference filter preceded the camera.
Data was analyzed as a summation of fluorescent counts above basal during the stimulation period (an approximation of area under the curve), after normalizing the data with a spatial uniformity correction (for variations in laser illumination and cell density) and a negative control correction (zero calcium increase defined as the fluorescence reading in the presence of saturating pharmacologic block of the respective calcium channel). Drug effects were expressed as percent inhibition of fluorescence from an average of 8 K^+-stimulated wells which were pre-treated in the drug incubation period with buffer only.
In the A10 cells, the pharmacologic agent used to define zero calcium influx was nitrendipine (RBI, N-144), at a final concentration of 1.0×10^−6 M.

[4] = molecular target: T2, N-type Ca2+ channels in superior cervical ganglion (SCG) neurons (Rattus norvegicus, UniProt Q02294); test: Whole-cell voltage clamp, N-type Ca2+ current in SCG neurons; assay type: cell-based; settings: for IC50: read-out: Inhibition of N-type Ca2+ Current IC50
T2 construct: from tissue
T2 sequence (Q02294 whole entry): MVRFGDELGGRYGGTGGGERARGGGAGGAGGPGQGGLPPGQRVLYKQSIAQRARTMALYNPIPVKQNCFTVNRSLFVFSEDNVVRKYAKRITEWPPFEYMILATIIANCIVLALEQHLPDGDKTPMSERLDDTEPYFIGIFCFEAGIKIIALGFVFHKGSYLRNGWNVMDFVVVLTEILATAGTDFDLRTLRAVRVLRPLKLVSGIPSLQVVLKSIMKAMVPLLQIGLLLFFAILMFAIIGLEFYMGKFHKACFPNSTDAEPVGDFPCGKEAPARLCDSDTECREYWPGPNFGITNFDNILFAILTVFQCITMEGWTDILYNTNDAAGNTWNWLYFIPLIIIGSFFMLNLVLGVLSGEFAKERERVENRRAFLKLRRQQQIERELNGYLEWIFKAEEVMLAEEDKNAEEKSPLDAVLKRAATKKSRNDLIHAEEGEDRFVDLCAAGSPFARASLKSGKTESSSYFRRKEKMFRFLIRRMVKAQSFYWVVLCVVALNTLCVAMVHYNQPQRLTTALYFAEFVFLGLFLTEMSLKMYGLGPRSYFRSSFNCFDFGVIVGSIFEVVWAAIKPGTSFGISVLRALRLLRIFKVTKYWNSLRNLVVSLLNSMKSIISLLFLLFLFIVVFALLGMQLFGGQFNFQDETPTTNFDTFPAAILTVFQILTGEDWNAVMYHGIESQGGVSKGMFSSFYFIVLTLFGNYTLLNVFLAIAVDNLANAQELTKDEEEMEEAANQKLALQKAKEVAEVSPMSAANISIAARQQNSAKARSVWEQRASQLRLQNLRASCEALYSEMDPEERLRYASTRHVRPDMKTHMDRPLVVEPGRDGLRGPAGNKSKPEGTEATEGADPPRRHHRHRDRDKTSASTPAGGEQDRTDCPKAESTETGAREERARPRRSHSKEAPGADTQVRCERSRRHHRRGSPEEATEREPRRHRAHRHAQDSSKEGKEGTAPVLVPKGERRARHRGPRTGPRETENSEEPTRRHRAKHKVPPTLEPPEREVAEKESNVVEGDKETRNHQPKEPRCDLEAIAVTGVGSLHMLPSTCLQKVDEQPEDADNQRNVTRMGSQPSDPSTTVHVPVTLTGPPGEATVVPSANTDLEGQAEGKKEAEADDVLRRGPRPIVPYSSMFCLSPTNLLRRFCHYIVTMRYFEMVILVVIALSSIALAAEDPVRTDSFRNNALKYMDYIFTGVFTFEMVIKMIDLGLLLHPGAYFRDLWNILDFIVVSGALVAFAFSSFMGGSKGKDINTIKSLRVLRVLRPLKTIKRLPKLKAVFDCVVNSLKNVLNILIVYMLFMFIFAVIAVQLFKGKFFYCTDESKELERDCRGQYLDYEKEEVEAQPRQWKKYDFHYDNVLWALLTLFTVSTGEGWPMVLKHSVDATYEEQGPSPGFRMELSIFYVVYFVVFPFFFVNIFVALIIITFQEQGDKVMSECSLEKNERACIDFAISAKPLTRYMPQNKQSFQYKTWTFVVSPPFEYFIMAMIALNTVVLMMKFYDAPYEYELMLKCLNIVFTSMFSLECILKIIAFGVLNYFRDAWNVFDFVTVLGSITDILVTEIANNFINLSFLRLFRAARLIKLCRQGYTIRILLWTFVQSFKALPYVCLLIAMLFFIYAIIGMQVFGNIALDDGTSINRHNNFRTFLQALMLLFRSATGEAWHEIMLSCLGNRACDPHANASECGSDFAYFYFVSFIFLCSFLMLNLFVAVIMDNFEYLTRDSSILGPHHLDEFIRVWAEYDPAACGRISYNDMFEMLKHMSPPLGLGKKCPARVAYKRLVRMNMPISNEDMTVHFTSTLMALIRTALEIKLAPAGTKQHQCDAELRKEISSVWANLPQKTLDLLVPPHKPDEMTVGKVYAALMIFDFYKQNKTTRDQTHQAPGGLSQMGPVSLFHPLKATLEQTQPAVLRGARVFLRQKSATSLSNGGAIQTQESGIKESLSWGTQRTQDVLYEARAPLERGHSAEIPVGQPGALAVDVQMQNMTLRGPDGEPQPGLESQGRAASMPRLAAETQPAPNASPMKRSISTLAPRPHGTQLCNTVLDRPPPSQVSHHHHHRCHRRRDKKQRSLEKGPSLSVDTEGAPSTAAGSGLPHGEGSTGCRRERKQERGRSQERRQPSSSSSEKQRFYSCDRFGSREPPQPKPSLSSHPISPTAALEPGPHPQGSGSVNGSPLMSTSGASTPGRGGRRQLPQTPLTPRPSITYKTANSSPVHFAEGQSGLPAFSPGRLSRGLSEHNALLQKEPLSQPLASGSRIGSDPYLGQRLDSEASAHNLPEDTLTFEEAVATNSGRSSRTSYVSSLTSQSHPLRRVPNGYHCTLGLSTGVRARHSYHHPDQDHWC
T2 sequence (P54290 25-944 partner limits assumed): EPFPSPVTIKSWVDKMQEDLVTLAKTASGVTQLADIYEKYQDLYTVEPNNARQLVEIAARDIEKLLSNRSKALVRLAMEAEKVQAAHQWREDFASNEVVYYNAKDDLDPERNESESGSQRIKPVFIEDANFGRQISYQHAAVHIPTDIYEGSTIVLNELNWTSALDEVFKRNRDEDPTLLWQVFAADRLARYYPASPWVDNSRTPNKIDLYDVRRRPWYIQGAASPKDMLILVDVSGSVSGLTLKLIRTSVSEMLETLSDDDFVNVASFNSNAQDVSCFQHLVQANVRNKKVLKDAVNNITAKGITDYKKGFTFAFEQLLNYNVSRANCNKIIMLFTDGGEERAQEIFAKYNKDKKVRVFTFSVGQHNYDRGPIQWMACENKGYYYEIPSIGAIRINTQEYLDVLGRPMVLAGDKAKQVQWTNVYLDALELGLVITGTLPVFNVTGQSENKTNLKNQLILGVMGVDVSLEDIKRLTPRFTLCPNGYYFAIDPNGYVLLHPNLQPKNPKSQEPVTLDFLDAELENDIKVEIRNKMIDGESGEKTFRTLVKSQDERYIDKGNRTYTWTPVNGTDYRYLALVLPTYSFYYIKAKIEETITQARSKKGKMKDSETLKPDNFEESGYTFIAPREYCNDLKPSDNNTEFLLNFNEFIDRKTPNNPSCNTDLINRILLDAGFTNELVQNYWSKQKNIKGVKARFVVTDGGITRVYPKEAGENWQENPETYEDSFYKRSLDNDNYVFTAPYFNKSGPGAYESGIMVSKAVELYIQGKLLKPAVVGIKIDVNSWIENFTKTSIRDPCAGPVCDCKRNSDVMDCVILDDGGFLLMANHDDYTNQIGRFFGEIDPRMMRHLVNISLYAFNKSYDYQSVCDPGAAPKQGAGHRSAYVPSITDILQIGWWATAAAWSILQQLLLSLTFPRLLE
T2 sequence (P54290 945-1091 partner limits assumed): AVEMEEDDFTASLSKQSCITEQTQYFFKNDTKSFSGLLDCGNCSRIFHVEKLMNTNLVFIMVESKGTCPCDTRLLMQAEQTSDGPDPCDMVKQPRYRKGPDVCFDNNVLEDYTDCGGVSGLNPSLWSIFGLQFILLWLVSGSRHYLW
T2 sequence (P54287 whole entry partner): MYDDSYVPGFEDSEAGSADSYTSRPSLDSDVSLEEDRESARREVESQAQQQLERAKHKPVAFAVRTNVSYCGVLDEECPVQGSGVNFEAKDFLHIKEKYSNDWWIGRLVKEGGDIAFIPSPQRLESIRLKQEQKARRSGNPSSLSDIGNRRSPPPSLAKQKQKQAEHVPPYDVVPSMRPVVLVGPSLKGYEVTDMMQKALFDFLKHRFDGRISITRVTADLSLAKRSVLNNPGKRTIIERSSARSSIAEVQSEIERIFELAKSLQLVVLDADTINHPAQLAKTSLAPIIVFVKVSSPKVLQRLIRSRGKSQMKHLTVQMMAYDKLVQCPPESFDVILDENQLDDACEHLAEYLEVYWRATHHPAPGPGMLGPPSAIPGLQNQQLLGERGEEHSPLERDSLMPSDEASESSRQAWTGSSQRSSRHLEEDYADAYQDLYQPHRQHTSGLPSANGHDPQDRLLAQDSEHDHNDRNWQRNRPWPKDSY
Method in brief: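 Whole-cell voltage clamp of acutely trypsin-dissociated rat SCG neurons, with TEA/choline external solution (2 mM Ca2+) and Cs-methanesulfonate pipette solution. Currents evoked by 150 ms steps to +20 mV from −65 to −55 mV holding, every 40 s; compounds applied locally, effect as % inhibition of control amplitude.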

For `CC(C)(C)OC(=O)[C@H](Cc1ccc(OCc2ccccc2)cc1)NC(=O)CNC(=O)N1CCCCCC1` (stereo in doubt) [Example 8, [S-(R*,R*)]-2-{2-[(Azepane-1-carbonyl)-amino]-acetylamino}-3-(4-benzyloxy-phenyl)-propionic acid tert-butyl ester], the “Inhibition of K+ Current, % Inhibition at 10 μM” value [1] was 72%, the “Inhibition of Na+ Current, % Inhibition at 10 μM” value [2] was 43% and the IC50 [3] was 180 nM. The “Inhibition of N-type Ca2+ Current, % Inhibition at 10 μM” value ([4]; 10 μM) was 86% and the IC50 [4] was 1920 nM.

For `CC(C)C[C@H](NC(=O)N1CCCCCC1)C(=O)N[C@@H](Cc1ccc(OCc2ccccc2)cc1)C(=O)OC(C)(C)C` [Example 1], the “Inhibition of K+ Current, % Inhibition at 10 μM” value [1] was 31%, the IC50 ([1]; read-out: Inhibition of K+ Current IC50) was 24000 nM and the “Inhibition of Na+ Current, % Inhibition at 10 μM” value [2] was 28%. It also gave an IC50 ([2]; read-out: Inhibition of Na+ Current IC50) of 14000 nM, an IC50 [3] of 1720 nM and an inhibition at 10 µM ([4]; 10 μM) of 68%. The IC50 [4] was 1270 nM.

For `CC(C)(C)OC(=O)[C@H](Cc1ccc(OCc2ccccc2)cc1)NC(=O)[C@H](Cc1ccccc1)NC(=O)N1CCCCCC1` [Example 16], the “Inhibition of K+ Current, % Inhibition at 10 μM” value [1] was 20%, the “Inhibition of Na+ Current, % Inhibition at 10 μM” value [2] was 38% and the IC50 [3] was 280 nM. For the same compound, the inhibition at 10 µM ([4]; 10 μM) was 19%.

With `CC(C)C[C@H](NC(=O)N1CCCCCC1)C(=O)N[C@@H](Cc1ccc(OCc2ccccc2)cc1)C(N)=O` [Example 21, [S-(R*,R*)]-Azepane-1-carboxylic acid {1-[2-(4-benzyloxy-phenyl)-1-carbamoyl-ethylcarbamoyl]-3-methyl-butyl}-amide] the “Inhibition of K+ Current, % Inhibition at 10 μM” value [1] was 56%, the “Inhibition of Na+ Current, % Inhibition at 10 μM” value [2] was 16% and the IC50 [3] was 1600 nM. It also gave an inhibition at 10 µM ([4]; 10 μM) of 45%.

For `CC(C)C[C@H](NC(=O)N1CCCCCC1)C(=O)N[C@@H](Cc1ccc(OCc2ccccn2)cc1)C(=O)OC(C)(C)C` [Example 25, [S-(R*,R*)]-2-{2-[(Azepane-1-carbonyl)-amino]-4-methyl-pentanoylamino}-3-[4-(pyridin-2-ylmethoxy)-phenyl]-propionic acid tert-butyl ester], the “Inhibition of K+ Current, % Inhibition at 10 μM” value [1] was 51%, the “Inhibition of Na+ Current, % Inhibition at 10 μM” value [2] was 16% and the IC50 [3] was 1700 nM. It also gave an inhibition at 10 µM ([4]; 10 μM) of 66% and an IC50 [4] of 5330 nM.

In the case of `CC(C)C[C@H](NC(=O)N1CCCCCC1)C(=O)N[C@@H](Cc1ccc(OCc2ccncc2)cc1)C(=O)OC(C)(C)C` [Example 26, [S-(R*,R*)]-2-{2-[(Azepane-1-carbonyl)-amino]-4-methyl-pentanoylamino}-3-[4-(pyridin-4-ylmethoxy)-phenyl]-propionic acid tert-butyl ester], the “Inhibition of K+ Current, % Inhibition at 10 μM” value [1] is reported as 41%, the “Inhibition of Na+ Current, % Inhibition at 10 μM” value [2] is reported as 13% and the IC50 [3] is reported as 3000 nM. For the same compound, the inhibition at 10 µM ([4]; 10 μM) was 58%.

In the case of `CC(C)C[C@H](NC(=O)N1CCCCCC1)C(=O)N[C@@H](Cc1ccc(C#CC2(O)CCCCC2)cc1)C(=O)NC(C)(C)C` [Example 138, [S-(R*,R*)]-Azepane-1-carboxylic acid (1-({-tert-butylcarbamoyl-2-[4-(1-hydroxy-cyclohexylethynyl)-phenyl]-ethylcarbamoyl}-3-methyl-butyl)-amide], the melting point is reported as 120 to 122 °C, the “Inhibition of K+ Current, % Inhibition at 10 μM” value [1] is reported as 43% and the “Inhibition of Na+ Current, % Inhibition at 10 μM” value [2] is reported as 31%. It also gave an IC50 [3] of 1600 nM and an inhibition at 10 µM ([4]; 10 μM) of 17%.

With `CC(C)C[C@H](NC(=O)N1CCCCCC1)C(=O)N[C@@H](Cc1ccc(C=Cc2ccccc2)cc1)C(=O)NC(C)(C)C` [Example 141, [S-(R*,R*)]-Azepane-1-carboxylic acid {1-[1-tert-butylcarbamoyl-2-(4-styryl-phenyl)-ethylcarbamoyl]-3-methyl-butyl}-amide] the melting point was 95 to 96 °C, the “Inhibition of K+ Current, % Inhibition at 10 μM” value [1] was 42% and the “Inhibition of Na+ Current, % Inhibition at 10 μM” value [2] was 18%. For the same compound, the IC50 [3] was 410 nM and the inhibition at 10 µM ([4]; 10 μM) was 39%.

For `CC(C)C[C@H](NC(=O)N1CCCCCC1)C(=O)N[C@@H](Cc1ccc(OCc2ccccc2)cc1)C(=O)NCCCn1ccnc1` [Example 237, [S-(R*,R*)]-Azepane-1-carboxylic acid {(1-[2-(4-benzyloxy phenyl)-1-(3-imidazol-1-yl-propylcarbamoyl)-ethylcarbamoyl]-3-methyl-butyl}-amide], the IC50 [3] was 2200 nM and the inhibition at 10 µM ([4]; 10 μM) was 79%.
